Data set [1] has as its system SW-620. In words: Antiproliferative activity against human SW-620 cells assessed as reduction in cell viability incubated for 48 hrs by CCK-8 assay. The format is functional, cell-based. Particulars: for IC50: SW-620, 48 h.
For data set [2], the system named is U-937. In words: Effect on cell survival in RSL3-induced human U-937 cells at 50 uM. The format is functional, cell-based.
The test system of data set [3] is U-937. Put plainly: Inhibition of RSL3-induced ferroptosis in human U-937 cells. The format is functional, cell-based.
Data set [4] relates to SW-620. In words: Antiproliferative activity against human SW-620 cells assessed as reduction in cell viability at 40 uM incubated for 48 hrs by CCK-8 assay. The format is functional, cell-based.
A further data set has as its system MDA-MB-231. In words: Antiproliferative activity against human MDA-MB-231 cells assessed as reduction in cell viability by CCK-8 assay. Type of data set: functional, cell-based. Particulars: dose 40.0 µM, time 48.0 hrs. Background: Formazan colour is commonly taken as a measure of viable cells.
The test system of the next data set is MCF7. Put plainly: Antiproliferative activity against human MCF7 cells assessed as reduction in cell viability by CCK-8 assay. Type of data set: functional, cell-based. Conditions: dose 40.0 µM, time 48.0 hrs.
The next data set deals with PANC-1. In words: Antiproliferative activity against human PANC-1 cells assessed as reduction in cell viability by CCK-8 assay. The format is functional, cell-based.
A further data set has as its system SMMC-7721. Put plainly: Antiproliferative activity against human SMMC-7721 cells assessed as reduction in cell viability by CCK-8 assay. The format is functional, cell-based.
The subject of the next data set is A549. In words: Antiproliferative activity against human A549 cells assessed as reduction in cell viability by CCK-8 assay. The format is functional, cell-based.
Data set [5] can be described thus: Cytotoxicity against human BEAS-2B cells assessed as inhibition of cell growth at 40 uM incubated for 48 hrs by CCK-8 assay relative to control. Type of data set: toxicity, cell-based.
The test system of data set [6] is U-937. Put plainly: Antiproliferative activity against human U-937 cells assessed as reduction in cell viability incubated for 48 hrs by CCK-8 assay. Particulars: u-937, 48 h, 50 µM. Type of data set: toxicity, cell-based.
For a further data set, the system named is CCRF-CEM. Put plainly: Antiproliferative activity against human CCRF-CEM cells assessed as reduction in cell viability incubated for 48 hrs by CCK-8 assay. Type of data set: functional, cell-based.
For the next data set, the system named is Jurkat. Put plainly: Antiproliferative activity against human Jurkat cells assessed as reduction in cell viability incubated for 48 hrs by CCK-8 assay. The format is functional, cell-based.
The test system of another data set is THP-1. Put plainly: Antiproliferative activity against human THP-1 cells assessed as reduction in cell viability incubated for 48 hrs by CCK-8 assay. The format is functional, cell-based. Conditions: THP-1, 48 h.
The next data set relates to K562. In words: Antiproliferative activity against human K562 cells assessed as reduction in cell viability incubated for 48 hrs by CCK-8 assay. The format is functional, cell-based. Particulars: K562, 48 h.
In data set [7] the test system is SW-620. In words: Antiproliferative activity against human SW-620 cells assessed as inhibition of cell proliferation by measuring decrease in fluorescence intensity incubated for 48 hrs by EdU incorporation based fluorescence microscopic analysis. Type of data set: functional. Conditions: dose 1.25-5 µM.
In data set [8] the test system is SW-620. In words: Antiproliferative activity against human SW-620 cells assessed as change in F-actin cytoskeleton morphology at 1.25 uM incubated for 48 hrs by DAPI staining based laser confocal microscope analysis. Type of data set: functional, cell-based.
The subject of data set [9] is SW-620. Put plainly: Antiproliferative activity against human SW-620 cells assessed as change in F-actin cytoskeleton density at 2.5 to 5 uM incubated for 48 hrs by DAPI staining based laser confocal microscope analysis. Type of data set: functional, cell-based. Particulars: dose 2.5-5 µM.
Data set [10] relates to SW-620. In words: Induction of apoptosis in human SW-620 cells assessed as decrease in Bcl-2 expression at 1.25 to 5 uM incubated for 48 hrs by Western blotting analysis. Type of data set: functional, cell-based. Particulars: dose 1.25-5 µM. On the technique in general: Immunoblotting shows a protein as a band on a membrane.
In data set [11] the test system is SW-620. Put plainly: Induction of apoptosis in human SW-620 cells assessed as increase in Bax expression at 1.25 to 5 uM incubated for 48 hrs by Western blotting analysis. Type of data set: functional, cell-based. Conditions: dose 1.25-5 µM.
Data set [12] has as its system SW-620. In words: Induction of apoptosis in human SW-620 cells assessed as increase in Bax/Bcl-2 ratio incubated for 48 hrs by Western blotting analysis. The format is functional, cell-based. Conditions: dose 1.25-5 µM.
For data set [13], the system named is SW-620. In words: Induction of apoptosis in human SW-620 cells assessed as viable cells at 1.25 uM incubated for 48 hrs by Annexin V FITC/PI staining based flow cytometry analysis (reference value: 90.0 %). The format is functional. Particulars: read-out: Activity. In general terms: A flow cytometer gives signals particle by particle.
Data set [14] relates to SW-620. In words: Induction of apoptosis in human SW-620 cells assessed as early apoptotic cells at 1.25 uM incubated for 48 hrs by Annexin V FITC/PI staining based flow cytometry analysis (reference value: 5.00 %). Type of data set: functional.
In data set [15] the test system is SW-620. Put plainly: Induction of apoptosis in human SW-620 cells assessed as late apoptotic cells at 1.25 uM incubated for 48 hrs by Annexin V FITC/PI staining based flow cytometry analysis (reference value: 4.90 %). The format is functional.
For data set [16], the system named is SW-620. In words: Induction of apoptosis in human SW-620 cells assessed as necrotic cells at 1.25 uM incubated for 48 hrs by Annexin V FITC/PI staining based flow cytometry analysis (reference value: 0.057 %). Type of data set: functional.
The subject of data set [17] is SW-620. In words: Induction of apoptosis in human SW-620 cells assessed as viable cells at 2.5 uM incubated for 48 hrs by Annexin V FITC/PI staining based flow cytometry analysis (reference value: 90.0 %). The format is functional. Conditions: read-out: Activity.
Data set [18] relates to SW-620. In words: Induction of apoptosis in human SW-620 cells assessed as early apoptotic cells at 2.5 uM incubated for 48 hrs by Annexin V FITC/PI staining based flow cytometry analysis (reference value: 5.00 %). The format is functional.
Data set [19] relates to SW-620. Put plainly: Induction of apoptosis in human SW-620 cells assessed as late apoptotic cells at 2.5 uM incubated for 48 hrs by Annexin V FITC/PI staining based flow cytometry analysis (reference value: 4.90 %). Type of data set: functional.
Data set [20] concerns SW-620. Put plainly: Induction of apoptosis in human SW-620 cells assessed as necrotic cells at 2.5 uM incubated for 48 hrs by Annexin V FITC/PI staining based flow cytometry analysis (reference value: 0.057 %). Type of data set: functional.
Data set [21] deals with SW-620. Put plainly: Induction of apoptosis in human SW-620 cells assessed as viable cells at 5 uM incubated for 48 hrs by Annexin V FITC/PI staining based flow cytometry analysis (reference value: 90.0 %). Conditions: read-out: Activity. The format is functional.
Data set [22] concerns SW-620. Put plainly: Induction of apoptosis in human SW-620 cells assessed as early apoptotic cells at 5 uM incubated for 48 hrs by Annexin V FITC/PI staining based flow cytometry analysis (reference value: 5.00 %). Type of data set: functional.
Data set [23] concerns SW-620. In words: Induction of apoptosis in human SW-620 cells assessed as late apoptotic cells at 5 uM incubated for 48 hrs by Annexin V FITC/PI staining based flow cytometry analysis (reference value: 4.90 %). Type of data set: functional.
Data set [24] concerns SW-620. Put plainly: Induction of apoptosis in human SW-620 cells assessed as necrotic cells at 5 uM incubated for 48 hrs by Annexin V FITC/PI staining based flow cytometry analysis (reference value: 0.057 %). Type of data set: functional.

Activity calls are given as the source filed them. The calls are words filed in the database; no cut-off is given here.

Broadly, the IC50 is the point on the concentration scale where inhibition reaches its midpoint. What is called EC50 is the midpoint of the concentration-response curve. A high value points to a need for much substance. Broadly, the inhibition is the percentage by which the read-out fell short of the control.

`COc1cccc2c1C(=O)c1c(O)c3c(c(O)c1C2=O)C[C@@](O)(C(=O)CO)C[C@@H]3O[C@H]1C[C@H](N)[C@H](O)[C@H](C)O1` [DOXORUBICIN]: in the data set with SW-620 [1], the IC50 is 2.3 µM.
As to `C[C@H](/C=C/[C@H](CO)C(C)(C)O)[C@H]1C[C@H](O)C2=C3C=CC4=CC(=O)CC[C@]4(C)[C@H]3C[C@@H](O)[C@@]21C`, in the data set on U-937 [2], the result was Active.
`CC(=O)O[C@H]1C[C@H]([C@H](C)/C=C/[C@H](C)C(C)(O)CO)[C@]2(C)C1=C1C=CC3=CC(=O)CC[C@]3(C)[C@H]1C[C@H]2O` (stereo not given in full) came in with an EC50 in the data set with U-937 [3] of 30 µM.
Take `C[C@H](/C=C/[C@H](CO)C(C)(C)O)[C@H]1CC(=O)C2=C3C=CC4=CC(=O)CC[C@]4(C)[C@H]3C[C@@H](O)[C@@]21C`: the result in the data set with U-937 [2] was Active.
Same read-out and setting: as for `C[C@H](/C=C/[C@H](C)C(C)(C)O)[C@H]1C[C@H](O)C2=C3C=CC4=CC(=O)CC[C@]4(C)[C@H]3C[C@@H](O)[C@@]21C`, the entry is “Active”.
For `C[C@H](/C=C/[C@H](CO)C(C)(C)O)[C@H]1CCC2=C3C=CC4=CC(=O)CC[C@]4(C)[C@H]3C[C@@H](O)[C@@]21C`, the result in the data set with SW-620 [4] and in the data set with U-937 [2] was Active. Further, the result in the data set on MDA-MB-231, in the data set on MCF7, in the data set with PANC-1, in the data set on SMMC-7721 and in the data set with A549 was inactive. The Activity result was “Dose-Dependent Effect” with SW-620 [1] and “Toxic” in the data set with U-937 [6]. Further, the IC50 in the data set with SW-620 [1] is 8.4 µM; in the data set on CCRF-CEM, 5.7 µM; in the data set on Jurkat, 5.7 µM; with THP-1, 5.7 µM; with K562, 5.7 µM. In addition, in data set [5], the inhibition at 48 h, 40 µM is < 7%.
For `CO[C@@H]1C[C@H]([C@H](C)/C=C/[C@H](CO)C(C)(C)O)[C@]2(C)C1=C1C=CC3=CC(=O)CC[C@]3(C)[C@H]1C[C@H]2O`, the result in the data set with U-937 [2] was Active.
Still for that read-out and setting: as for `CC(=O)O[C@H]1C[C@H]([C@H](C)/C=C/[C@H](CO)C(C)(C)O)[C@]2(C)C1=C1C=CC3=CC(=O)CC[C@]3(C)[C@H]1C[C@H]2O`, the entry is “Active”; as for `CO[C@H]1C[C@H]([C@H](C)/C=C/[C@H](CO)C(C)(C)O)[C@]2(C)C1=C1C=CC3=CC(=O)CC[C@]3(C)[C@H]1C[C@H]2O`, “Active”.
As to `C[C@H](/C=C/[C@H](CO)C(C)(C)O)[C@H]1CCC2=C3C=CC4=CC(=O)CC[C@]4(C)[C@H]3CC[C@@]21C`, the outcome with SW-620 [4], with SW-620 [8], with SW-620 [9], in the data set on SW-620 [10] and in the data set with SW-620 [11] was Active. Besides, the outcome with MDA-MB-231, in the data set with MCF7, in the data set on PANC-1, in the data set on SMMC-7721 and with A549 was inactive. The Activity entry with SW-620 [1] is “Dose-Dependent Effect”; in the data set on SW-620 [7], “Dose-Dependent Effect”; with SW-620 [12], “Dose-Dependent Effect”; with SW-620 [14], 6.2%; with SW-620 [15], 14.1%; in the data set on SW-620 [16], 0.63%. Further, the Activity was 12.4% in the data set on SW-620 [18]; 61.4% in the data set with SW-620 [19]; 2.55% in the data set with SW-620 [20]; 14.6% in the data set on SW-620 [22]; 80.8% in the data set on SW-620 [23]; 1.23% in the data set with SW-620 [24]. Besides, the half-inhibitory concentration (IC50) in the data set with SW-620 [1] worked out at 3.1 µM. The inhibition at 48 h, 40 µM in data set [5] was < 7%. In the data set with SW-620 [13], the viability at 1.25 µM came out at 79.1%. The viability at 2.5 µM in the data set on SW-620 [17] was 23.6%. Besides, the viability at 5 µM with SW-620 [21] amounted to 3.35%.

For the origin of these results see ChEMBL document CHEMBL5532713, “Ergone Derivatives from the Deep-Sea-Derived Fungus Aspergillus terreus YPGA10 and 25,28-Dihydroxyergone-Induced Apoptosis in Human Colon Cancer SW620 Cells” (J Nat Prod, 2024).
